The text below walks through data of ChEMBL document CHEMBL5113521, “Discovery of a Novel Oral Proteasome Inhibitor to Block NLRP3 Inflammasome Activation with Anti-inflammation Activity” (J Med Chem, 2022).

By inhibition is commonly meant the share of the control response that was lost under treatment.

In data set [1] the target is T1, Proteasome Macropain subunit MB1 (Homo sapiens, UniProt P28074).
T1 sequence (P28074 whole entry): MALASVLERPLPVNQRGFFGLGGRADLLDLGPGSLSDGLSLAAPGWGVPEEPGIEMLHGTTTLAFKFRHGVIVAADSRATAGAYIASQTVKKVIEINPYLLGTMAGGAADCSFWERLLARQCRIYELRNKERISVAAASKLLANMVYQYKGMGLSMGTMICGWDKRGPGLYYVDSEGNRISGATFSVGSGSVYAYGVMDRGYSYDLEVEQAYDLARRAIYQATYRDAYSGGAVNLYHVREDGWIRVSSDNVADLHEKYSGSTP
As to the kind of experiment: Inhibition of 20S proteasome beta5 subunit (unknown origin) using Suc-LLVY-AMC as flurogenic substrate measured after 1 hr by fluorescence based analysis. The settings on record: read-out: pIC50 (converted).

A short description of data set [2]: Cytotoxicity against HEK293 cells incubated for 24 hrs. In kind it is toxicity, cell-based. The note with it: human.
Another data set concerns HEK293. As to the kind of experiment: Cytotoxicity against HEK293 cells at less than 20 uM incubated for 24 hrs. In kind it is toxicity, cell-based. The settings on record: human, hek293, 24 h.
For data set [3], the target named is NACHT, LRR and PYD domains-containing protein 3 (Mus musculus) (UniProt Q8R4B8). As to the kind of experiment: Inhibition of NLRP3 inflammasome activation in LPS-primed mouse J774.A1 cells assessed as reduction in IL-1beta secretion at 1 uM relative to control. Format: cell-based.
NACHT, LRR and PYD domains-containing protein 3 (Mus musculus), sequence (Q8R4B8 whole entry, the tested form may be a part): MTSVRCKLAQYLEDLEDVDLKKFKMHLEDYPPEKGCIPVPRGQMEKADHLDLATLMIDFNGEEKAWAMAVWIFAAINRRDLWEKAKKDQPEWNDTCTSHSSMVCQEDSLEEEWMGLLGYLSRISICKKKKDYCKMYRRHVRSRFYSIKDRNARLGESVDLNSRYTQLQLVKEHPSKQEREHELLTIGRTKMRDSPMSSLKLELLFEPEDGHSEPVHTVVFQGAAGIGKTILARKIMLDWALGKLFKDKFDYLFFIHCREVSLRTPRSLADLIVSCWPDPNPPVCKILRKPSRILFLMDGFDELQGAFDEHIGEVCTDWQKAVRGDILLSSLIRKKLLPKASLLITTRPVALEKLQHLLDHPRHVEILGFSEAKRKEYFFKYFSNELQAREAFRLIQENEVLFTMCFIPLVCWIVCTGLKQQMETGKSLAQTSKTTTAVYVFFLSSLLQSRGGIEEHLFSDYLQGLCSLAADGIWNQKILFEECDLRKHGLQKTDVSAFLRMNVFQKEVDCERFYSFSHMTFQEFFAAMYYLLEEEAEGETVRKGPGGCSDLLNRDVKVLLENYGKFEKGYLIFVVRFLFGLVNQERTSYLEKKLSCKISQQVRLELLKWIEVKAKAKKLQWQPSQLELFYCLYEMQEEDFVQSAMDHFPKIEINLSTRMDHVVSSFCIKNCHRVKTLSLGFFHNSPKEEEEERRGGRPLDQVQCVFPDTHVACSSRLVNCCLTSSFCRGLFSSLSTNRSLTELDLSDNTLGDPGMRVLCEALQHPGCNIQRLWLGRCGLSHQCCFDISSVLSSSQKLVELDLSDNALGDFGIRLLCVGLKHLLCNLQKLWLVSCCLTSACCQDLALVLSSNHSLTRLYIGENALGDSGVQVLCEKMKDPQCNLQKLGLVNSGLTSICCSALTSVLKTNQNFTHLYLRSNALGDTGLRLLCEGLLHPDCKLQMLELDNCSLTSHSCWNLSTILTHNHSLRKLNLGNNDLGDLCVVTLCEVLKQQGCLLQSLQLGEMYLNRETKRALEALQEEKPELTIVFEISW

As to `CC(C)C[C@H](NC(=O)[C@H](CO)NC(=O)c1cc(Cl)ccc1Cl)B(O)O`, the IC50 in data set [1] was 5.13 nM.
Regarding `COc1ccc(Cl)cc1C(=O)N[C@@H](Cc1ccccc1)C(=O)N[C@@H](CC(C)C)B(O)O`, the IC50 in data set [1] is 8.32 nM.
Take `CC(C)C[C@H](NC(=O)[C@H](Cc1ccccc1)NC(=O)c1cc(F)ccc1F)B(O)O`: the IC50 in data set [1] was 6.03 nM.
Turning to `CC(C)C[C@H](NC(=O)[C@H](Cc1ccccc1)NC(=O)c1cnc2ccccc2n1)B(O)O`, the IC50 in data set [1] is 13.2 nM.
On to `CC(C)C[C@H](NC(=O)[C@H](Cc1ccccc1)NC(=O)c1cccc(Cl)c1Cl)B(O)O`, for which the IC50 in data set [1] is 1.2 nM. In data set [2], this compound had an IC50 at 24 h of under 79.4 nM. For the same compound, the Activity entry with HEK293 was “Non-Toxic”.
For the compound `CC(C)C[C@H](NC(=O)c1ccc(CNC(=O)c2cc(Cl)ccc2Cl)cc1)B(O)O`, the IC50 in data set [1] is over 50.1 nM.
As for `CC(C)C[C@H](NC(=O)CN(C)C(=O)c1cc(Cl)ccc1Cl)B(O)O`, the IC50 in data set [1] is over 50.1 nM.
Turning to `O=C(O)C[C@@H]1CC[C@H](NC(=O)Cc2cccs2)B(O)O1`, the inhibition in data set [3] came out at 7.8%.
As to `CC(C)C[C@H](NC(=O)[C@H](Cc1ccccc1)NC(=O)c1ccccn1)B(O)O`, the IC50 in data set [1] is 6.76 nM. For the same compound, the IC50 at 24 h in data set [2] was under 79.4 nM. Also, the Activity result in the data set on HEK293 is given as “Non-Toxic”.
Consider `CC(C)C[C@H](NC(=O)[C@H](Cc1ccccc1)NC(=O)c1ccc(F)cc1F)B(O)O`, for which the IC50 in data set [1] is 4.79 nM.
On to `CC(C)C[C@H](NC(=O)c1cc(Cl)ccc1Cl)B(O)O`, for which the IC50 in data set [1] is over 50.1 nM.
On to `CC(C)C[C@H](NC(=O)[C@H](Cc1ccccc1)NC(=O)c1ccc(Cl)cc1Cl)B(O)O`, for which the IC50 in data set [1] was 3.47 nM.
Consider `CC(C)C[C@H](NC(=O)[C@H](Cc1ccc(O)cc1)NC(=O)c1cc(Cl)ccc1Cl)B(O)O`, for which the IC50 in data set [1] is 1 nM. Also, in data set [2], the IC50 at 24 h was under 79.4 nM. In the data set on HEK293, the Activity result is recorded as “Non-Toxic”.
As to `CC(C)C[C@H](NC(=O)[C@H](Cc1ccccc1)NC(=O)c1cc(Cl)ccc1Cl)B(O)O`, the IC50 in data set [1] was 6.31 nM.
Consider `CC(C)C[C@H](NC(=O)[C@H](CC(C)C)NC(=O)c1cc(Cl)ccc1Cl)B(O)O`, for which the IC50 in data set [1] is 4.07 nM.
On to `CC(C)C[C@H](NC(=O)[C@H](Cc1ccccc1)NS(=O)(=O)c1cc(Cl)ccc1Cl)B(O)O`, for which the IC50 in data set [1] was 19.5 nM.
As for `CC(C)C[C@H](NC(=O)[C@H](Cc1ccccc1)NC(=O)c1nc(Cl)ccc1Cl)B(O)O`, in data set [1], the IC50 was 4.27 nM. In data set [2], this compound gave an IC50 at 24 h of under 79.4 nM. The Activity result with HEK293 was “Non-Toxic”.
On to `CC(C)C[C@H](NC(=O)[C@H](Cc1ccc2ccccc2c1)NC(=O)c1cc(Cl)ccc1Cl)B(O)O`, for which the IC50 in data set [1] is 12 nM.
On the same count and under the same terms, for `CC(C)C[C@H](NC(=O)[C@@H](NC(=O)c1cc(Cl)ccc1Cl)c1ccccc1)B(O)O` the value was 7.08 nM.
In the case of `CC(C)C[C@H](NC(=O)[C@@H](NC(=O)c1cc(Cl)ccc1Cl)C(C)C)B(O)O`, the IC50 in data set [1] is 0.708 nM.
Turning to `CC(C)C[C@H](NC(=O)[C@H](Cc1ccccc1)NC(=O)c1cc(Cl)ccc1F)B(O)O`, in data set [1], the IC50 was 3.02 nM.
Turning to `CC(C)C[C@H](NC(=O)[C@H](Cc1ccccc1)NC(=O)c1c(Cl)cccc1Cl)B(O)O`, in data set [1], the IC50 was 3.02 nM. For the same compound, the IC50 at 24 h in data set [2] was under 79.4 nM. For the same compound, the Activity entry in the data set on HEK293 is recorded as “Non-Toxic”.
For the compound `COc1ccc(F)cc1C(=O)N[C@@H](Cc1ccccc1)C(=O)N[C@@H](CC(C)C)B(O)O`, the IC50 in data set [1] is 4.47 nM.
On the same count and under the same terms, for `CC(C)C[C@H](NC(=O)[C@H](Cc1ccccc1)NC(=O)c1cc(Cl)ccc1Cl)C(=O)O` the value was 50.1 nM.
Take `CC(C)C[C@H](NC(=O)[C@H](Cc1ccccc1)NC(=O)c1cccc(F)c1F)B(O)O`: the IC50 in data set [1] was 1.12 nM. Moreover, the IC50 at 24 h in data set [2] was under 79.4 nM. In addition, in the data set with HEK293, the Activity entry was “Non-Toxic”.
In the case of `CC(C)C[C@H](NC(=O)[C@H](Cc1ccccc1)NC(=O)c1cnccn1)C(=O)O`, the IC50 in data set [1] is 50.1 nM.
Consider `CC(C)C[C@H](NC(=O)CNC(=O)c1cc(Cl)ccc1Cl)B(O)O`, for which the inhibition in data set [3] turned out to be 77%.
As for `Cc1cncc(C(=O)N[C@@H](Cc2ccccc2)C(=O)N[C@@H](CC(C)C)B(O)O)n1`, in data set [1], the IC50 is 32.4 nM.
In data set [2], `CC(C)C[C@H](NC(=O)[C@H](Cc1ccccc1)NC(=O)c1cnccn1)B(O)O` [BORTEZOMIB] had an IC50 at 24 h of under 79.4 nM. Besides, the Activity result with HEK293 is on record as “Non-Toxic”.
`CC[C@@H](C)[C@H](NC(=O)c1cc(Cl)ccc1Cl)C(=O)N[C@@H](CC(C)C)B(O)O`: the IC50 in data set [1] is 3.24 nM.
